Converted amounts (≈) assume the structure as drawn. Like-named read-outs stand apart in the source and are kept apart here.
Legend:
A431 [1] = experiment: Inhibition of cell growth by incorporation of [3H]-thymidine, A431; format: cell-based, human; details: Homo sapiens, A-431, read-out: IC50 A431
HTB161 = experiment: Inhibition of cancer cell growth as measured by cell number, HTB161; format: cell-based; details: Homo sapiens, 48 h, read-out: IC50 HTB161
A27805 = experiment: Inhibition of cancer cell growth as measured by cell number, A27805; format: cell-based; details: Homo sapiens, 48 h, read-out: IC50 A27805
A2780DDP = experiment: Inhibition of cancer cell growth as measured by cell number, A2780DDP; format: cell-based; details: Homo sapiens, 48 h, read-out: IC50 A2780DDP
MIP = experiment: Inhibition of cancer cell growth as measured by cell number, MIP; format: cell-based; details: Homo sapiens; cell number, Sulforhodamine B, 48 hours exposure; Table 4; read-out: IC50 MIP
SW620 = experiment: Inhibition of cancer cell growth as measured by cell number, SW620; format: cell-based, human; details: Homo sapiens, SW-620, 48 h, read-out: IC50 SW620, cell number, Sulforhodamine B, 48 hours exposure;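 note: SW620 was included as a cell line with little or no EGFR or HER2/neu expression, in contrast to receptor-overexpressing lines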
Source text: (§1) The cell lines were chosen since they overexpressed epidermal growth factor receptor (EGFR) (i.e. A431) or HER2/neu (SKBR3), or had little to no expression of the these receptors (SW620, LOX, MCF7).

COLO205 = experiment: Inhibition of cancer cell growth as measured by cell number, COLO205; format: cell-based; details: Homo sapiens, COLO 205, 48 h, read-out: IC50 COLO205
CX1 = experiment: Inhibition of cancer cell growth as measured by cell number, CX1; format: cell-based; details: Homo sapiens, CX-1, 48 h, read-out: IC50 CX1
CACO2 = experiment: Inhibition of cancer cell growth as measured by cell number, CACO2; format: cell-based; details: Homo sapiens, Caco-2, 48 h, read-out: IC50 CACO2
HCT15 = experiment: Inhibition of cancer cell growth as measured by cell number, HCT15; format: cell-based; details: Homo sapiens, HCT-15, 48 h, read-out: IC50 HCT15
LS174T = experiment: Inhibition of cancer cell growth as measured by cell number, LS174T; format: cell-based; details: Homo sapiens, 48 h, read-out: IC50 LS174T
SW948 = experiment: Inhibition of cancer cell growth as measured by cell number, SW948; format: cell-based; details: Homo sapiens, SW948, 48 h, read-out: IC50 SW948
CCL228 = experiment: Inhibition of cancer cell growth as measured by cell number, CCL228; format: cell-based; details: Homo sapiens, 48 h, read-out: IC50 CCL228
MCF7 = experiment: Inhibition of cancer cell growth as measured by cell number, MCF7; format: cell-based, human; details: Homo sapiens, MCF7, 48 h, read-out: IC50 MCF7, cell number, Sulforhodamine B, 48 hours exposure;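 note: MCF7 was included as a line with little or no EGFR or HER2/neu expression, in contrast to the receptor-overexpressing lines of the panel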
Source text: as §1

B7474 = experiment: Inhibition of cancer cell growth as measured by cell number, B7474; format: cell-based; details: Homo sapiens, 48 h, read-out: IC50 B7474
T47D = experiment: Inhibition of cancer cell growth as measured by cell number, T47D; format: cell-based; details: Homo sapiens, 48 h, read-out: IC50 T47D
LX1 = experiment: Inhibition of cancer cell growth as measured by cell number, LX1; format: cell-based; details: Homo sapiens, LX-1, 48 h, read-out: IC50 LX1
A549 = experiment: Inhibition of cancer cell growth as measured by cell number, A549; format: cell-based; details: Homo sapiens, A549, 48 h, read-out: IC50 A549
LOX = experiment: Inhibition of cancer cell growth as measured by cell number, LOX; format: cell-based, human; details: Homo sapiens, LOX, 48 h, read-out: IC50 LOX, cell number, Sulforhodamine B, 48 hours exposure;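 note: LOX cells served as a line with low or absent EGFR and HER2/neu expression, in contrast to receptor-overexpressing lines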
Source text: as §1

A431 [2] = experiment: Inhibition of cancer cell growth as measured by cell number, A431; format: cell-based, human; details: Homo sapiens, A-431, 48 h, read-out: IC50 A431, cell number, Sulforhodamine B, 48 hours exposure;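 note: human A431 line, picked because it overexpresses epidermal growth factor receptor (EGFR)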
Source text: as §1

NEC = experiment: Inhibition of cancer cell growth as measured by cell number, NEC; format: cell-based; details: Homo sapiens, 48 h, read-out: IC50 NEC
DU145 = experiment: Inhibition of cancer cell growth as measured by cell number, DU145; format: cell-based; details: Homo sapiens, DU-145, 48 h, read-out: IC50 DU145
PC3 = experiment: Inhibition of cancer cell growth as measured by cell number, PC3; format: cell-based; details: Homo sapiens, PC-3, 48 h, read-out: IC50 PC3
LNCAP = experiment: Inhibition of cancer cell growth as measured by cell number, LNCAP; format: cell-based; details: Homo sapiens, 48 h, read-out: IC50 LNCAP
HL60 = experiment: Inhibition of cancer cell growth as measured by cell number, HL60; format: cell-based; details: Homo sapiens, HL-60, 48 h, read-out: IC50 HL60
CCRF-CFM = experiment: Inhibition of cancer cell growth as measured by cell number, CCRF-CFM; format: cell-based; details: Homo sapiens, 48 h, read-out: IC50 CCRF-CFM
SKBR3 = experiment: Inhibition of cancer cell growth as measured by cell number, SKBR3; format: cell-based, human; details: Homo sapiens, SK-BR-3, 48 h, read-out: IC50 SKBR3, cell number, Sulforhodamine B, 48 hours exposure;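 note: SK-BR-3 cells were selected as a line overexpressing HER2/neu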
Source text: as §1

[3] = biological target: recombinant human MEK 1 (MAPKK) and recombinant human ERK2 (MAPK); experiment: Mitogen Activated Protein Kinase (MAPK) assay, two component coupled MEK 1 / ERK2; format: biochemical; details: separate entries for the same compound = evaluated more than one time;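 note: MEK 1-activated ERK2 phosphorylates MBP or Myc peptide with 33P-ATP, filter capture and scintillation counting, inhibitor preincubated with ERK2 30 min at 0 °C, inhibition relative to uninhibited control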
[4] = biological target: epidermal growth factor receptor kinase (Homo sapiens, UniProt P00533); experiment: biochemical
epidermal growth factor receptor kinase, sequence (P00533 25-1210): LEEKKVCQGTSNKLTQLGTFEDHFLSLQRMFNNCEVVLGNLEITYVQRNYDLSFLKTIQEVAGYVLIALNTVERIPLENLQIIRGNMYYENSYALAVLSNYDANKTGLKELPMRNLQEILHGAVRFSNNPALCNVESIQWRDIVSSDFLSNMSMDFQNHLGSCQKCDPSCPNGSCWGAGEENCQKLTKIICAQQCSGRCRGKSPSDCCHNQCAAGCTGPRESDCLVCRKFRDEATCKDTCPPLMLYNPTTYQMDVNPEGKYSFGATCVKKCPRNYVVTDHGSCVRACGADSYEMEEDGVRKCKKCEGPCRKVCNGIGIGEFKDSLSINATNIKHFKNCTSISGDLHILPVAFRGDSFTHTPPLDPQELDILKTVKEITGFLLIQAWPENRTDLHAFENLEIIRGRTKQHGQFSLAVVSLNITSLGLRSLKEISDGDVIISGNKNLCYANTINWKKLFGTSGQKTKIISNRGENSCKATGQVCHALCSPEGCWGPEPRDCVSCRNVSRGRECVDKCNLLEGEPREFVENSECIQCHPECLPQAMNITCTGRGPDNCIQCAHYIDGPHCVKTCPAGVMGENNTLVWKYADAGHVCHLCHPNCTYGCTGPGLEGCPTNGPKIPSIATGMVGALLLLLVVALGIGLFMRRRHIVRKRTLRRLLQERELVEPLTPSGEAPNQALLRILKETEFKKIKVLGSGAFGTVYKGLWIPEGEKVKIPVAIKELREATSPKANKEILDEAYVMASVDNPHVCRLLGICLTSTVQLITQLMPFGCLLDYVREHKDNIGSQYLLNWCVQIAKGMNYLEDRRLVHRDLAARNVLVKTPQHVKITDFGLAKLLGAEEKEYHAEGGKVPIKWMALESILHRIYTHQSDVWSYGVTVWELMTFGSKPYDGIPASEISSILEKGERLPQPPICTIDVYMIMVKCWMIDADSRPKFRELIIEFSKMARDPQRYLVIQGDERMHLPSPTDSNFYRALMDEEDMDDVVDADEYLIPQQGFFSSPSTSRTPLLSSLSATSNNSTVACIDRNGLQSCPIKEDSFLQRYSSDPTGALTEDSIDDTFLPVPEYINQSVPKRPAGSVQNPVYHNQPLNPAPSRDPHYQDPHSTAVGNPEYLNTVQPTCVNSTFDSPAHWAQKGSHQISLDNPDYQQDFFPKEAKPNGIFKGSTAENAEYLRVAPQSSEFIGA

Row | SMILES | IC50 (A431 [1]) [nM] | IC50 (HTB161) [µg/mL] | IC50 (A27805) [µg/mL] | IC50 (A2780DDP) [µg/mL] | IC50 (MIP) [µg/mL] | IC50 (SW620; Table 4) [µg/mL] | IC50 (CX1) [µg/mL] | IC50 (CACO2) [µg/mL] | IC50 (HCT15) [µg/mL] | IC50 (LS174T) [µg/mL] | IC50 (SW948) [µg/mL] | IC50 (CCL228) [µg/mL] | IC50 (B7474) [µg/mL] | IC50 (T47D) [µg/mL] | IC50 (LX1) [µg/mL] | IC50 (A549) [µg/mL] | IC50 (LOX; Table 6) [µg/mL] | IC50 (A431 [2]; Table 6) [µg/mL] | IC50 (DU145) [µg/mL] | IC50 (PC3) [µg/mL] | also measured
1 | COc1cc2ncc(C#N)c(Nc3cccc(Cl)c3)c2cc1OC [Example 41, 4-[(3-Chlorophenyl)amino]-6,7-dimethoxy-3-quinolinecarbonitrile] | 1500 | 7.87 (≈ 23.2 µM) | 7.73 (≈ 22.7 µM) | 6.25 (≈ 18.4 µM) | 4.09 (≈ 12 µM) | 14.7 (≈ 43.1 µM) | 7.25 (≈ 21.3 µM) | 2.11 (≈ 6.21 µM) | 4.21 (≈ 12.4 µM) | 2.92 (≈ 8.61 µM) | 14.1 (≈ 41.6 µM) | 18.5 (≈ 54.4 µM) | 6.26 (≈ 18.4 µM) | 8.5 (≈ 25 µM) | 48.7 (≈ 143 µM) | 25 (≈ 73.5 µM) | 0.961 (≈ 2.83 µM) | 0.813 (≈ 2.39 µM) | 0.913 (≈ 2.69 µM) | 17.5 (≈ 51.5 µM) | IC50 (SW620; Table 8): 2.23 µg/mL (≈ 6.56 µM); IC50 (COLO205): 6.13 µg/mL (≈ 18 µM); IC50 (MCF7; Table 5): 24.8 µg/mL (≈ 73.1 µM); IC50 (MCF7; Table 8): 6.86 µg/mL (≈ 20.2 µM); IC50 (LOX; Table 8): 1.33 µg/mL (≈ 3.91 µM); IC50 (A431 [2]; Table 8): 0.24 µg/mL (≈ 0.706 µM); IC50 (NEC): 8.46 µg/mL (≈ 24.9 µM); IC50 (LNCAP): 3.53 µg/mL (≈ 10.4 µM); IC50 (HL60): 3.23 µg/mL (≈ 9.52 µM); IC50 (CCRF-CFM): 8.29 µg/mL (≈ 24.4 µM); IC50 (SKBR3; Table 7): 20.6 µg/mL (≈ 60.8 µM); IC50 (SKBR3; Table 8): 0.48 µg/mL (≈ 1.41 µM); IC50 [3]: 1400 nM; IC50 [4]: 200 nM
2 | COc1cc2ncc(C#N)c(Nc3ccc(F)cc3)c2cc1OC [Example 46, 4-((4-Fluorophenyl)amino]-6,7-dimethoxy-3-quinolinecarbonitrile] | 1000 | 9.59 (≈ 29.6 µM) | 7.41 (≈ 22.9 µM) | 5.86 (≈ 18.1 µM) | 5.6 (≈ 17.3 µM) | > 100 | 9.7 (≈ 30 µM) | 6.03 (≈ 18.6 µM) | 5.6 (≈ 17.3 µM) | 7.13 (≈ 22 µM) | > 100 | 54 (≈ 167 µM) | 32.9 (≈ 102 µM) | > 100 | 34 (≈ 105 µM) | 4.85 (≈ 15 µM) | 5.35 (≈ 16.5 µM) | 8.01 (≈ 24.8 µM) | 3.63 (≈ 11.2 µM) | > 100 | IC50 (HL60): 6.02 µg/mL (≈ 18.6 µM); IC50 (CCRF-CFM): 61.7 µg/mL (≈ 191 µM); IC50 [4]: 8830 nM
